Experimental data from US20260125382A1, “COMPOUNDS FOR INHIBITING OR DEGRADING CDK2 AND/OR CDK9 AND MEDICINAL USE THEREOF” (KOREA RESEARCH INSTITUTE OF CHEMICAL TECHNOLOGY, priority 2022, published 2026).

Tests used:
[1] = biological target: T1, CDK2 (Homo sapiens, UniProt P24941); assay: CDK protein degradation activity (Western blotting), CDK2; format: cell-based; conditions: MDA-MB-231 cells, 16 hours, Western blot
T1 construct: endogenous in cells; host or cells: MDA-MB-231
Procedure, shortened: (§1)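 Breast cancer line MDA-MB-231, 16 h compound treatment (100 nM–10 μM final, three doses). Immunoblot quantification of CDK2/CDK9 versus tubulin, normalized to DMSO control.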

[2] = biological target: T2, CDK9 (Homo sapiens, UniProt P50750); assay: CDK protein degradation activity (Western blotting), CDK9; format: cell-based; conditions: MDA-MB-231 cells, 16 hours, Western blot
T2 construct: endogenous in cells; host or cells: MDA-MB-231
Procedure, shortened: as §1

T2 sequence (P50750 whole entry): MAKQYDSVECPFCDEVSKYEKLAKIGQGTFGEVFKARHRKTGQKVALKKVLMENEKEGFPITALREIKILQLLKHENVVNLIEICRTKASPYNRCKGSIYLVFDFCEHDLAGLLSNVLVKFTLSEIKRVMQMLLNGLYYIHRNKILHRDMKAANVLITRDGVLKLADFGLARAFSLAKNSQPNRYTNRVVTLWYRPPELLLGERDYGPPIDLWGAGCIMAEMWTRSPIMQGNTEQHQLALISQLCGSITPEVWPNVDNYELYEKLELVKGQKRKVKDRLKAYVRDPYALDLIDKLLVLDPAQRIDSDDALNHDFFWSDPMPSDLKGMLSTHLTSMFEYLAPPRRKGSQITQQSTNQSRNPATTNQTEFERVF

SMILES	Enzyme degradation CDK2 (% remaining) @ 0.1 μM [1]	Enzyme degradation CDK2 (% remaining) @ 1 μM [1]	Enzyme degradation CDK2 (% remaining) @ 10 μM [1]	Enzyme degradation CDK9 (% remaining) @ 0.1 μM [2]	Enzyme degradation CDK9 (% remaining) @ 1 μM [2]	Enzyme degradation CDK9 (% remaining) @ 10 μM [2]
O=C1CC[C@H](n2nnc3ccc(N4CCC(CCCN5CCN(c6ccc(Nc7ncnc8c7ncn8C7CC(NC(=O)Cc8ccccc8)C7)cc6)CC5)CC4)cc3c2=O)C(=O)N1 (stereo partly drawn) [Compound 351, N-((1s,3s)-3-(6-((4-(4-(3-(1-(3-(2,6-dioxopiperidin-3-yl)-4-oxo-3,4-dihydrobenzo[d][1,2,3]triazin-6-yl)piperidin-4-yl)propyl)piperazin-1-yl)phenyl)amino)-9H-purin-9-yl)cyclobutyl)-2-phenylacetamide]	20%	10%	10%	10/10/10%	10/10/10%	10/10/10%
O=C1CC[C@H](N2C(=O)c3ccc(CCCCN4CCC(N5CCN(c6ccc(Nc7ncnc8c7ncn8C7CC(NC(=O)Cc8ccccc8)C7)cc6)CC5)CC4)cc3C2=O)C(=O)N1 (stereo partly drawn) [Compound 408, N-((1s,3s)-3-(6-((4-(4-(1-(4-(2-(2,6-dioxopiperidin-3-yl)-1,3-dioxoisoindolin-5-yl)butyl)piperidin-4-yl)piperazin-1-yl)phenyl)amino)-9H-purin-9-yl)cyclobutyl)-2-phenylacetamide]	40%	30%	30%	20%	10%	10%
N#Cc1cccc(C(=O)N[C@H]2C[C@@H](n3cnc4c(Nc5ccc(N6CCN(CC7CCN(C(=O)CNc8cccc9c8C(=O)N(C8CCC(=O)NC8=O)C9=O)CC7)CC6)cc5)ncnc43)C2)n1 (stereo partly drawn) [Compound 420, 6-cyano-N-((1s,3s)-3-(6-((4-(4-((1-((2-(2,6-dioxopiperidin-3-yl)-1,3-dioxoisoindolin-4-yl)glycyl)piperidin-4-yl)methyl)piperazin-1-yl)phenyl)amino)-9H-purin-9-yl)cyclobutyl)picolinamide]	10/10/10%	10/10/10%	10/10/10%	0/0/0%	0/0/0%	0/0/0%
O=C1CC[C@H](N2C(=O)c3ccc(N4CC(CN5CCC(CCN6CCN(c7ccc(Nc8ncnc9c8ncn9[C@H]8C[C@@H](NC(=O)Cc9ccccc9)C8)cc7)CC6)CC5)C4)cc3C2=O)C(=O)N1 [Compound 375, N-((1s,3s)-3-(6-((4-(4-(2-(1-((1-(2-(2,6-dioxopiperidin-3-yl)-1,3-dioxoisoindolin-5-yl)azetidin-3-yl)methyl)piperidin-4-yl)ethyl)piperazin-1-yl)phenyl)amino)-9H-purin-9-yl)cyclobutyl)-2-phenylacetamide]	30%	10%	10%	30%	10%	10%
O=C1CC[C@H](N2C(=O)c3ccc(NCC(=O)N4CCC(CN5CCN(c6ccc(Nc7ncnc8c7ncn8C7CC(NC(=O)Cc8ccccc8)C7)cc6)CC5)CC4)cc3C2=O)C(=O)N1 (stereo partly drawn) [Compound 177, N-((1s,3s)-3-(6-((4-(4-((1-((2-(2,6-dioxopiperidin-3-yl)-1,3-dioxoisoindolin-5-yl)glycyl)piperidin-4-yl)methyl)piperazin-1-yl)phenyl)amino)-9H-purin-9-yl)cyclobutyl)-2-phenylacetamide]	50%	10%	10%	30%	0%	0%
O=C1CC[C@H](N2C(=O)c3ccc(N4CC(C(=O)N5CCC6(CC5)CC(N5CCN(c7ccc(Nc8ncnc9c8ncn9C8CC(NC(=O)c9c(Cl)cccc9Cl)C8)cc7)CC5)C6)C4)cc3C2=O)C(=O)N1 (stereo partly drawn) [Compound 383, 2,6-dichloro-N-((1s,3s)-3-(6-((4-(4-(7-(1-(2-(2,6-dioxopiperidin-3-yl)-1,3-dioxoisoindolin-5-yl)azetidin-3-carbonyl)-7-azaspiro[3.5]nonan-2-yl)piperazin-1-yl)phenyl)amino)-9H-purin-9-yl)cyclobutyl)benzamide]	40/40/40%	40/40/40%	40/40/40%	0/0/0%	0/0/0%	0/0/0%
O=C1CC[C@@H](c2ccc(OCC(=O)N3CCC(CN4CCN(c5ccc(Nc6ncnc7c6ncn7C6CC(NC(=O)Cc7ccccc7)C6)cc5)CC4)CC3)cc2)C(=O)N1 (stereo partly drawn) [Compound 202, N-((1s,3s)-3-(6-((4-(4-((1-(2-(4-(2,6-dioxopiperidin-3-yl)phenoxy)acetyl)piperidin-4-yl)methyl)piperazin-1-yl)phenyl)amino)-9H-purin-9-yl)cyclobutyl)-2-phenylacetamide]	30%	20%	40%	10%	0%	0%
O=C1CC[C@H](N2C(=O)c3ccc(NCC(=O)N4CCC5(CC4)CC(N4CCC(c6ccc(Nc7ncnc8c7ncn8[C@H]7C[C@@H](NC(=O)Cc8ccccc8)C7)cc6)CC4)C5)cc3C2=O)C(=O)N1 (racemic) [Compound 296, N-((1s,3s)-3-(6-((4-(1-(7-((2-(2,6-dioxopiperidin-3-yl)-1,3-dioxoisoindolin-5-yl)glycyl)-7-azaspiro[3.5]nonan-2-yl)piperidin-4-yl)phenyl)amino)-9H-purin-9-yl)cyclobutyl)-2-phenylacetamide]	20%	0%	0%	0/0/0%	0/0/0%	0/0/0%
CC(=O)N[C@H]1C[C@@H](n2cnc3c(NCC4CCN(CC5CCN(C(=O)CNc6ccc7c(c6)C(=O)N([C@H]6CCC(=O)NC6=O)C7=O)CC5)CC4)ncnc32)C1 [Compound 156, N-((1s,3s)-3-(6-(((1-((1-((2-(2,6-dioxopiperidin-3-yl)-1,3-dioxoisoindolin-5-yl)glycyl)piperidin-4-yl)methyl)piperidin-4-yl)methyl)amino)-9H-purin-9-yl)cyclobutyl)acetamide]	100%	80%	70%	80%	50%	40%
